Data set [1] deals with Nav1.8 ion channel stably expressed on HEK293 cells (Homo sapiens (Human), UniProt Q9Y5Y9). The data set is described as follows: Inhibitory activity against Nav1.8, manual patch clamp. The class given is cell-based. The conditions noted are these: resting protocol (-80 mV to 10 mV), 1 μM TTX, read-out: IC50 for the inhibition of Nav1.8 channel activity. The source says: The objective of the experiment was to investigate the effects of the compounds on the Nav1.8 ion channel in ex vivo experiments. The Nav1.8 ion channel is stably expressed on HEK293 cells. After the Nav1.8 current stabilized, the effects of the compounds on the Nav1.8 ion channel were obtained by comparing the magnitudes of the Nav1.8 currents before and after the compounds were applied.
• 1) A patch clamp amplifier: patch clamp PC-505B (WARNER instruments)/MultiClamp 700A (Axon instrument) • 2) A digital-to-analog converter: Digidata 1440A (Axon CNS)/Digidata 1550A (Axon instruments) • 3) A micromanipulator: MP-225 (SUTTER instrument) • 4) An inverted microscope: TL4 (Olympus) • 5) Glass micropipette puller: PC-10 (NARISHIGE) • 6) Microelectrode glass capillaries: B12024F (Wuhan VitalSense Scientific Instruments Co., Ltd.) • 7) Dimethyl sulfoxide (DMSO) D2650 (Sigma-Aldrich) • 8) TTX AF3014 (Affix Scientific)
The compounds for preparing the intracellular and extracellular fluids were purchased from Sigma (St. Louis, MO) except for the NaOH and KOH for the acid-base titrations. The extracellular fluid (mM) was: NaCl, 137; KCl, 4; CaCl2, 1.8; MgCl2, 1; HEPES, 10; glucose, 10; pH 7.4 (NaOH titration). The intracellular fluid (mM) was: aspartic acid, 140; MgCl2, 2; EGTA, 11; HEPES, 10; pH 7.2 (CsOH titration). All test and control compound solutions contained 1 μM TTX.
The test compounds were stored at a concentration of 9 mM in dimethyl sulfoxide (DMSO). On the testing day, the compounds were further dissolved in the extracellular fluid to prepare the required concentrations.
1) After the compounds were prepared into solutions with specified concentrations, the compound solutions were sequentially added to channels in ascending order according to their concentrations, and each channel was labeled.
2) A cell was transferred to the perfusion chamber. Positive pressure was applied inside the electrode, and the electrode tip was brought into contact with the cell. The three-way valve of the suction device was switched to the state where all three ways were open, and negative pressure was then applied to the electrode, allowing a high-resistance seal to form between the electrode and the cell. The application of negative pressure was continued to rupture the cell membrane, leading to the formation of a current pathway.
3) After the cell membrane rupture current stabilized, perfusion was performed with different concentrations in sequence. If the current remained stable for at least one minute, perfusion was performed with the next concentration.
4) The perfusion chamber was cleaned. The perfusion chamber was rinsed with the compound solutions in descending order according to their concentrations, with each concentration applied for 20 s. Finally, the perfusion chamber was rinsed with the extracellular fluid for 1 min.
The cell was clamped at −80 mV and then depolarized to 10 mV using a square wave lasting for 10 ms to obtain a Nav1.8 current. This procedure was repeated once every 5 seconds. The maximum current induced by the square wave was detected. After the current stabilized, perfusion was performed with the test compounds. After the reaction stabilized, the strength of the blocking was calculated.
The data were stored on a computer system and analyzed. Data acquisition and analysis were performed using pCLAMP 10 (Molecular Devices, Union City, CA), and the results were reviewed by a manager. “Current stabilized” means that the changes in current over time were within a limited range. The magnitude of the current after stabilization was used to calculate the effect of the compound at this […].
The inhibitory activity of the compounds of the present disclosure against Nav1.8 was determined through the above assay.

The nature of data set [2]: Pharmacokinetic evaluation in dogs (i.g.). The class given is in vivo. The settings on record: both sexes, dog, plasma, po, 2 mg/kg. As to the method:
Dogs were used as test animals. After intragastric (i.g.) administration of the example compound to dogs, the plasma concentrations of the compound at different time points were determined by the LC/MS/MS method. The pharmacokinetic behavior of the compound of the present disclosure in dogs was studied, and its pharmacokinetic profile was evaluated.
The compound of Example 43.
Four dogs, with an equal number of males and females, provided by Weifang Shengnuo Laboratory Animal Breeding Co., Ltd (license: SCXK (Beijing) 2020-0009) and Beijing Institute of Xieerxin Biology Resource Co., Ltd (license: SCXK (Shandong) 20230001). The animals were fasted overnight and then intragastrically dosed.
A certain amount of the example compound was weighed out, and 5% DMSO+20% PG+20% PEG400+55% normal saline was added to prepare a […] colorless clear solution.
The administration dose was 2 mg/kg, and the administration volume was 10.0 mL/kg.
0.5-mL blood samples were collected from a forelimb vein before administration and 0.25, 0.5, 1.0, 2.0, 4.0, 6.0, 8.0, 11.0, 24.0, 48.0, and 72 h after administration, placed into EDTA-K2 anticoagulation test tubes, and centrifuged at 10,000 rpm for 1 min (4° C.), and the plasma was separated within 1 h and stored with dry ice before analysis. The procedures from the blood collection to the centrifugation were performed under ice-bath conditions. Access to food was given 2 h after administration.
Determination of the plasma concentration of the test compound in dogs after the compound was administered at different concentrations: A 50-μL sample of the dog plasma collected at each time point after administration was taken, and 250 μL of acetonitrile containing an internal standard (labetalol, 1 μg/mL) was added. The mixture was vortexed and centrifuged at 3700 rpm for 10 min. 0.5 μL of the supernatant was taken for LC/MS/MS analysis.

Data set [3] in a line: Pharmacokinetic evaluation in SD rats (i.g.). The class given is in vivo. The settings on record: male, Sprague-Dawley (SD), rat, plasma, po, 50 mg/kg. As to the method: SD rats were used as test animals. After intragastric (i.g.) administration of the example compounds to SD rats, the plasma concentrations of the compounds at different time points were determined by the LC/MS/MS method. The pharmacokinetic behaviors of the compounds of the present disclosure in SD rats were studied, and their pharmacokinetic profiles were evaluated.
Compounds 16 and 32: Four male SD rats, provided by Vital River Laboratory Animal Technology Co., Ltd. The animals were fasted overnight and then intragastrically dosed.
Compound 38: Two male SD rats, provided by Zhejiang Vital River Laboratory Animal Technology Co., Ltd. The animals were fasted overnight and then intragastrically dosed.
Compounds 16 and 32: Certain amounts of the test compounds were weighed out, and 5% DMSO+5% tween 80+90% normal saline was added to prepare 0.2 mg/mL colorless clear solutions.
Compound 38: A certain amount of the test compound was weighed out, and 25% PEG400+75% (10% TPGS+1% HPMC K100LV) was added to prepare a 5 mg/mL colorless clear solution.
Compounds 16 and 32: The administration dose was 2 mg/kg, and the administration volume was 10.0 mL/kg.
Compound 38: The administration dose was 50 mg/kg, and the administration volume was 10.0 mL/kg.
0.2-mL blood samples were collected from the orbit before administration and 0.25, 0.5, 1.0, 2.0, 4.0, 6.0, 8.0, 11.0, and 24.0 h after administration, placed into EDTA-K2 anticoagulation test tubes, and centrifuged at 10,000 rpm for 1 min (4° C.), and the plasma was separated within 1 h and stored with dry ice before analysis. The procedures from the blood collection to the centrifugation were performed under ice-bath conditions. Access to food was given 2 h after administration.
Compounds 16 and 32: Determination of the plasma concentrations of the test compounds in SD rats after the compounds were administered at different concentrations: A 25-μL sample of the SD rat plasma collected at each time point after administration was taken, and 200 μL of acetonitrile containing an internal standard (verapamil, 100 ng/mL) was added. The mixture was vortexed and centrifuged at 3700 rpm for 10 min. 0.1 μL of the supernatant was taken for LC/MS/MS analysis.
Compound 38: Determination of the plasma concentration of the test compound in SD rats after the compound was administered at different concentrations: A 25-μL sample of the SD rat plasma collected at each time point after administration was taken, and 200 μL of acetonitrile containing an internal standard (dexamethasone, 100 ng/mL) was added. The mixture was vortexed and centrifuged at 4000 rpm for 15 min. 1 μL of the supernatant was taken for LC/MS/MS analysis.

A short description of data set [4]: Pharmacokinetic evaluation in CD-1 mice (i.g.). Type of data set: in vivo. The settings on record: male, mouse, plasma, po, 100 mg/kg. The method, then:
CD-1 mice were used as test animals. After intragastric (i.g.) administration of the compound of the present disclosure to CD-1 mice, the plasma concentrations of the compound at different time points were determined by the LC/MS/MS method. The pharmacokinetic behavior of the compound of the present disclosure in CD-1 mice was studied, and its pharmacokinetic profile was evaluated.
Nine male CD-1 mice (3 mice per time point), provided by Vital River Laboratory Animal Technology Co., Ltd. (license: SCXK (Zhejiang) 2019-0001). The mice were intragastrically dosed.
A certain amount of the test compound was weighed out, and 25% PEG400+75% (10% TPGS+1% HPMC K100LV) was added to prepare a 10 mg/mL yellowish suspension.
The administration dose was 100 mg/kg, and the administration volume was 10 mL/kg.
The intragastric administration groups: 0.1-mL blood samples were collected from the orbit before administration and 0.25, 0.5, 1.0, 2.0, 4.0, 6.0, 8.0, 11.0, and 24.0 h after administration, placed into EDTA-K2 anticoagulation test tubes, and centrifuged at 10,000 rpm for 1 min (4° C.), and the plasma was separated within 1 h and stored at −80° C. before analysis. The procedures from the blood collection to the centrifugation were performed under ice-bath conditions.
Determination of the plasma concentration of the test compound in CD-1 mice after the compound was administered at different concentrations: A 20-μL sample of the CD-1 mouse plasma collected at each time point after administration was taken, and 200 μL of acetonitrile containing an internal standard (dexamethasone, 100 ng/mL) was added to each sample to precipitate protein. The mixture was vortexed for 5 min and centrifuged at 4000 rpm for 15 min. 40 μL of the supernatant was taken, and 120 μL of water was added. The mixture was vortexed for 5 min, and 0.5 μL of the mixture was taken for LC/MS/MS analysis.

Setting [5] is: read-out: Area under curve AUC0-t.
Setting [6] is: read-out: Half-life T½ (converted).
Where [7] appears, read: read-out: Plasma concentration Cmax.

This note sets out measurements from patent US20260055088A1, “HETEROCYCLIC COMPOUND, METHOD FOR PREPARING SAME, AND PHARMACEUTICAL USE THEREOF” (Jiangsu Hengrui Pharmaceuticals Co., Ltd., priority 2022, published 2026).

As to `COc1c([C@H]2[C@H](C(=O)Nc3cc[n+]([O-])c(/C(N)=N/O)c3)O[C@@](C)(C(F)(F)F)[C@H]2C)ccc(F)c1F` [Example 43, 4-((2R,3S,4S,5R)-3-(3,4-Difluoro-2-methoxyphenyl)-4,5-dimethyl-5-(trifluoromethyl)tetrahydrofuran-2-carboxamido)-2-((Z)—N′-hydroxycarbamimidoyl)pyridine 1-oxide], the IC50 – broadly, the concentration that inhibits the measured activity by half – in data set [1] was determined as 0.3 nM. In data set [2] (setting [5]), the AUC(0-t) was 250000 ng·h/mL. In data set [2] (read-out: Clearance rate CL/F), the CL/F amounted to 0.128 mL/min/kg. Also, the half-life (commonly how long it takes for the measured level to halve) in data set [2] (setting [6]) was 34.5 h. Also, in data set [2] (setting [7]), the Cmax was determined as 5680 ng/mL.

For `COc1c([C@H]2[C@H](C(=O)Nc3ccnc(C4(N)CC4)c3)O[C@@](C)(C(F)(F)F)[C@H]2C)ccc(F)c1F` [Example 38, (2R,3S,4S,5R)—N-(2-(1-Aminocyclopropyl)pyridin-4-yl)-3-(3,4-difluoro-2-methoxyphenyl)-4,5-dimethyl-5-(trifluoromethyl)tetrahydrofuran-2-carboxamide], the IC50 in data set [1] was 2.2 nM. In addition, the results for the AUC(0-t) in data set [3] (setting [5]) and in data set [4] (setting [5]) were 18400 ng·h/mL and 76700 ng·h/mL, respectively. Moreover, the CL/F was 42 mL/min/kg in data set [3] (read-out: Clearance rate CL/F) and 20.3 mL/min/kg in data set [4] (read-out: Clearance rate CL/F). Besides, the half-life was 5.84 h in data set [3] (setting [6]) and 5.8 h in data set [4] (setting [6]). Further, the Cmax in data set [3] (setting [7]) was 1440 ng/mL; in data set [4] (setting [7]) it was 6280 ng/mL.
